The values below come from patent US20240228504A1, “SUBSTITUTED TRICYCLIC AMIDES, ANALOGUES THEREOF, AND METHODS USING SAME” (Arbutus Biopharma Corporation, priority 2020, published 2024).

Each structure is given as a SMILES string.

The test system of one assay is HBV rcDNA in HepDE19 cells. The experiment in a line: HepDE19 assay with bDNA quantitation of HBV rcDNA. It counts as cell-based, hepatitis B virus. The note with it: HepDE19 assay, inhibition of rcDNA formation, bDNA quantitation; read-out: DE-19bDNA EC50.
For `CN(C(=O)c1cc2c(F)cc(F)cc2[nH]1)C1COCc2[nH]c(=O)c3cc(F)c(F)cc3c21` (single isomer, unassigned) [Compound 43, N-(8,9-Difluoro-6-oxo-1,4,5,6-tetrahydro-2H-pyrano[3,4-c]isoquinolin-1-yl)-4,6-difluoro-N-methyl-1H-indole-2-carboxamide], the EC50 (usually the midpoint of the concentration-response curve) stood at 1.8 µM.
Turning to `CN(C(=O)c1cc2c(F)cc(F)cc2[nH]1)C1COCc2[nH]c(=O)c3cc(F)c(F)cc3c21` (single isomer, unassigned) [Compound 44, N-(8,9-Difluoro-6-oxo-1,4,5,6-tetrahydro-2H-pyrano[3,4-c]isoquinolin-1-yl)-4,6-difluoro-N-methyl-1H-indole-2-carboxamide], the EC50 worked out at 0.01 µM.
With `CN(C(=O)c1cc2c(F)c(F)ccc2[nH]1)C1COCc2[nH]c(=O)c3cc(F)c(F)cc3c21` (single isomer, unassigned) [Compound 45, N-(8,9-Difluoro-6-oxo-1,4,5,6-tetrahydro-2H-pyrano[3,4-c]isoquinolin-1-yl)-4,5-difluoro-N-methyl-1H-indole-2-carboxamide], the EC50 came out at 0.31 µM.
For the compound `CN(C(=O)c1cc2c(F)c(F)ccc2[nH]1)C1COCc2[nH]c(=O)c3cc(F)c(F)cc3c21` (single isomer, unassigned) [Compound 46, N-(8,9-Difluoro-6-oxo-1,4,5,6-tetrahydro-2H-pyrano[3,4-c]isoquinolin-1-yl)-4,5-difluoro-N-methyl-1H-indole-2-carboxamide], the EC50 was found to be 0.005 µM.
In the case of `CN(C(=O)c1cc2c([nH]1)CCC(F)(F)C2)C1COCc2[nH]c(=O)c3cc(F)c(F)cc3c21` (single isomer, unassigned) [Compound 47, N-(8,9-Difluoro-6-oxo-1,4,5,6-tetrahydro-2H-pyrano[3,4-c]isoquinolin-1-yl)-5,5-difluoro-N-methyl-4,5,6,7-tetrahydro-1H-indole-2-carboxamide], the EC50 turned out to be 0.02 µM.
Regarding `CN(C(=O)c1cc2c([nH]1)CCC(F)(F)C2)C1COCc2[nH]c(=O)c3cc(F)c(F)cc3c21` (single isomer, unassigned) [Compound 48, N-(8,9-Difluoro-6-oxo-1,4,5,6-tetrahydro-2H-pyrano[3,4-c]isoquinolin-1-yl)-5,5-difluoro-N-methyl-4,5,6,7-tetrahydro-1H-indole-2-carboxamide], the half-maximal effective concentration (EC50) came out at 0.77 µM.
On to `CN(C(=O)c1cc2cc(F)c(F)cc2[nH]1)C1COCc2[nH]c(=O)c3cc(F)ccc3c21` (single isomer, unassigned) [Compound 49, 5,6-Difluoro-N-(8-fluoro-6-oxo-1,4,5,6-tetrahydro-2H-pyrano[3,4-c]isoquinolin-1-yl)-N-methyl-1H-indole-2-carboxamide], for which the EC50 was 2.1 µM.
With `CN(C(=O)c1cc2cc(F)c(F)cc2[nH]1)C1COCc2[nH]c(=O)c3cc(F)ccc3c21` (single isomer, unassigned) [Compound 50, 5,6-Difluoro-N-(8-fluoro-6-oxo-1,4,5,6-tetrahydro-2H-pyrano[3,4-c]isoquinolin-1-yl)-N-methyl-1H-indole-2-carboxamide], the EC50 turned out to be 0.01 µM.
Still for that read-out and setting: next, `CN(C(=O)c1cc2ccccc2[nH]1)C1CNCc2[nH]c(=O)c3cc(F)c(F)cc3c21` (single isomer, unassigned) [Compound 54, N-(8,9-Difluoro-6-oxo-1,2,3,4,5,6-hexahydrobenzo[c][1,7]naphthyridin-1-yl)-N-methyl-1H-indole-2-carboxamide]: 0.85 µM; `CN(C(=O)c1cc2ccccc2[nH]1)C1CNCc2[nH]c(=O)c3cc(F)c(F)cc3c21` (single isomer, unassigned) [Compound 55, N-(8,9-Difluoro-6-oxo-1,2,3,4,5,6-hexahydrobenzo[c][1,7]naphthyridin-1-yl)-N-methyl-1H-indole-2-carboxamide]: 0.01 µM; `CN1Cc2[nH]c(=O)c3cc(F)ccc3c2C(N(C)C(=O)c2cc3ccccc3[nH]2)C1` (single isomer, unassigned) [Compound 60, N-(8-Fluoro-3-methyl-6-oxo-1,2,3,4,5,6-hexahydrobenzo[c][1,7]naphthyridin-1-yl)-N-methyl-1H-indole-2-carboxamide]: 5.9 µM.
`CN1Cc2[nH]c(=O)c3cc(F)ccc3c2C(N(C)C(=O)c2cc3ccccc3[nH]2)C1` (single isomer, unassigned) [Compound 61, N-(8-Fluoro-3-methyl-6-oxo-1,2,3,4,5,6-hexahydrobenzo[c][1,7]naphthyridin-1-yl)-N-methyl-1H-indole-2-carboxamide]: the EC50 turned out to be 2.3 µM.
On the same count and under the same terms, next, `CN1Cc2[nH]c(=O)c3cc(F)c(F)cc3c2C(N(C)C(=O)c2cc3ccccc3[nH]2)C1` (single isomer, unassigned) [Compound 62, N-(8,9-Difluoro-3-methyl-6-oxo-1,2,3,4,5,6-hexahydrobenzo[c][1,7]naphthyridin-1-yl)-N-methyl-1H-indole-2-carboxamide]: 5.1 µM; `CN1Cc2[nH]c(=O)c3cc(F)c(F)cc3c2C(N(C)C(=O)c2cc3ccccc3[nH]2)C1` (single isomer, unassigned) [Compound 63, N-(8,9-Difluoro-3-methyl-6-oxo-1,2,3,4,5,6-hexahydrobenzo[c][1,7]naphthyridin-1-yl)-N-methyl-1H-indole-2-carboxamide]: 0.17 µM; `CC(=O)N1Cc2[nH]c(=O)c3cc(F)ccc3c2C(N(C)C(=O)c2cc3ccccc3[nH]2)C1` (single isomer, unassigned) [Compound 68, N-(3-Acetyl-8-fluoro-6-oxo-1,2,3,4,5,6-hexahydrobenzo[c][1,7]naphthyridin-1-yl)-N-methyl-1H-indole-2-carboxamide]: 5.5 µM.
For `CC(=O)N1Cc2[nH]c(=O)c3cc(F)ccc3c2C(N(C)C(=O)c2cc3ccccc3[nH]2)C1` (single isomer, unassigned) [Compound 69, N-(3-Acetyl-8-fluoro-6-oxo-1,2,3,4,5,6-hexahydrobenzo[c][1,7]naphthyridin-1-yl)-N-methyl-1H-indole-2-carboxamide], the EC50 was 21 µM.
For `CN(C(=O)c1cc2ccccc2[nH]1)C1CNCc2[nH]c(=O)c3cc(F)ccc3c21` (single isomer, unassigned) [Compound 77, N-(8-Fluoro-6-oxo-1,2,3,4,5,6-hexahydrobenzo[c][1,7]naphthyridin-1-yl)-N-methyl-1H-indole-2-carboxamide], the EC50 is 0.15 µM.
The same measure, in the same setting: with `CN(C(=O)c1cc2ccccc2[nH]1)C1CNCc2[nH]c(=O)c3cc(F)ccc3c21` (single isomer, unassigned) [Compound 78, N-(8-Fluoro-6-oxo-1,2,3,4,5,6-hexahydrobenzo[c][1,7]naphthyridin-1-yl)-N-methyl-1H-indole-2-carboxamide] the figure was 8.1 µM; with `CN(C(=O)c1cc2ccccc2[nH]1)C1CN(CCO)Cc2[nH]c(=O)c3cc(F)ccc3c21` (single isomer, unassigned) [Compound 80, N-(8-Fluoro-3-(2-hydroxyethyl)-6-oxo-1,2,3,4,5,6-hexahydrobenzo[c][1,7]naphthyridin-1-yl)-N-methyl-1H-indole-2-carboxamide], 6.3 µM; with `CC(=O)N1Cc2[nH]c(=O)c3cc(F)c(F)cc3c2C(N(C)C(=O)c2cc3ccccc3[nH]2)C1` (single isomer, unassigned) [Compound 81, N-(3-Acetyl-8,9-difluoro-6-oxo-1,2,3,4,5,6-hexahydrobenzo[c][1,7]naphthyridin-1-yl)-N-methyl-1H-indole-2-carboxamide], 14 µM.
For `CC(=O)N1Cc2[nH]c(=O)c3cc(F)c(F)cc3c2C(N(C)C(=O)c2cc3ccccc3[nH]2)C1` (single isomer, unassigned) [Compound 82, N-(3-Acetyl-8,9-difluoro-6-oxo-1,2,3,4,5,6-hexahydrobenzo[c][1,7]naphthyridin-1-yl)-N-methyl-1H-indole-2-carboxamide], the EC50 was found to be 3.5 µM.
Consider `CN(C(=O)c1cc2ccccc2[nH]1)C1CN(CCO)Cc2[nH]c(=O)c3cc(F)c(F)cc3c21` (single isomer, unassigned) [Compound 89, N-(8,9-Difluoro-3-(2-hydroxyethyl)-6-oxo-1,2,3,4,5,6-hexahydrobenzo[c][1,7]naphthyridin-1-yl)-N-methyl-1H-indole-2-carboxamide], for which the EC50 came to 7.9 µM.
In the case of `CN(C(=O)c1cc2ccccc2[nH]1)C1CN(CCO)Cc2[nH]c(=O)c3cc(F)c(F)cc3c21` (single isomer, unassigned) [Compound 90, N-(8,9-Difluoro-3-(2-hydroxyethyl)-6-oxo-1,2,3,4,5,6-hexahydrobenzo[c][1,7]naphthyridin-1-yl)-N-methyl-1H-indole-2-carboxamide], the EC50 is 0.5 µM.
With `CN(C(=O)c1cc2cc(F)ccc2[nH]1)C1CNCc2[nH]c(=O)c3cc(F)c(F)cc3c21` (single isomer, unassigned) [Compound 101, N-(8,9-Difluoro-6-oxo-1,2,3,4,5,6-hexahydrobenzo[c][1,7]naphthyridin-1-yl)-5-fluoro-N-methyl-1H-indole-2-carboxamide], the EC50 is 0.01 µM.
As to `CN(C(=O)c1cc2cc(F)ccc2[nH]1)C1CNCc2[nH]c(=O)c3cc(F)c(F)cc3c21` (single isomer, unassigned) [Compound 102, N-(8,9-Difluoro-6-oxo-1,2,3,4,5,6-hexahydrobenzo[c][1,7]naphthyridin-1-yl)-5-fluoro-N-methyl-1H-indole-2-carboxamide], the EC50 is 1.8 µM.
In the case of `CN(C(=O)c1cc2c(F)cccn2c1)C1CSCc2[nH]c(=O)c3cc(F)c(F)cc3c21` (single isomer, unassigned) [Compound 103, N-(8,9-Difluoro-6-oxo-1,4,5,6-tetrahydro-2H-thiopyrano[3,4-c]isoquinolin-1-yl)-8-fluoro-N-methylindolizine-2-carboxamide], the EC50 came to 2.5 µM.

The same assay, now with this note: Hepatitis B virus, HepDE19, HepDE19 assay, inhibition of rcDNA formation, bDNA quantitation; read-out: DE-19bDNA EC50.
Regarding `CN(C(=O)c1cc2ccccc2[nH]1)C1CN(CCO)Cc2[nH]c(=O)c3cc(F)ccc3c21` (single isomer, unassigned) [Compound 79, N-(8-Fluoro-3-(2-hydroxyethyl)-6-oxo-1,2,3,4,5,6-hexahydrobenzo[c][1,7]naphthyridin-1-yl)-N-methyl-1H-indole-2-carboxamide], the EC50 came out at 10 µM.
